Activity calls are given as the source filed them. The calls are words filed in the database; no cut-off is given here.

In data set [1] the test system is Trypanosoma cruzi. Description: Anti-trypanosomal activity against Trypanosoma cruzi CAI/72 infected in mouse C2C12 cells at 10 uM incubated for 48 hrs relative to control. The class given is functional.
In data set [2] the test system is C2C12. Description: Cytotoxicity against mouse C2C12 cells assessed as reduction in cell viability at 10 uM incubated for 72 hrs by DAPI staining based microscopic analysis relative to control. The class given is toxicity. The settings on record: c2c12, 72 h.
The nature of data set [3]: Selectivity index, ratio of CC50 for mouse C2C12 cells to EC50 for Trypanosoma cruzi CAI/72 intracellular amastigotes. The class given is toxicity, cell-based. The settings on record: read-out: Selectivity Index.
The target of data set [4] is Cruzipain (Trypanosoma cruzi) (UniProt P25779). Description: Inhibition of Trypanosoma cruzi cruzain using Z-FR-AMC as substrate measured after 10 mins relative to control.
Data set [5] can be described thus: Antioxidant activity assessed as inhibition of DPPH radical scavenging activity at 0.03 mg/ml measured after 2 hrs by absorbance based analysis relative to control. The class given is functional. More on the design: scale not given: the % may be the effect or the level left. On the technique in general: DPPH is a stable violet radical that fades when it is reduced.

Data set [6] is described as follows: Antioxidant activity assessed as inhibition of DPPH radical scavenging activity at 0.015 mg/ml measured after 2 hrs by absorbance based analysis relative to control. The class given is functional. Set-up: scale not given: the % may be the effect or the level left.
The nature of data set [7]: Half life in female Balb/c mouse at 50 mg/kg, po by mass spectrometry. The class given is ADME, organism-based. The following applies: in vivo.
Data set [8] is described as follows: Antioxidant activity assessed as inhibition of DPPH radical scavenging activity at 0.06 mg/ml measured after 2 hrs by absorbance based analysis relative to control. The class given is functional. More on the design: scale not given: the % may be the effect or the level left.
Data set [9] has as its system C2C12. In words: Cytotoxicity against mouse C2C12 cells assessed as reduction in cell viability at 3 uM incubated for 72 hrs by DAPI staining based microscopic analysis relative to control. The settings on record: c2c12, 72 h. The class given is toxicity.
In data set [10] the test system is C2C12. Description: Cytotoxicity against mouse C2C12 cells assessed as reduction in cell viability at 40 uM incubated for 72 hrs by DAPI staining based microscopic analysis relative to control. The class given is toxicity. The settings on record: c2c12, 72 h.

Sequence of Cruzipain (Trypanosoma cruzi) (P25779 123-467 limits assumed): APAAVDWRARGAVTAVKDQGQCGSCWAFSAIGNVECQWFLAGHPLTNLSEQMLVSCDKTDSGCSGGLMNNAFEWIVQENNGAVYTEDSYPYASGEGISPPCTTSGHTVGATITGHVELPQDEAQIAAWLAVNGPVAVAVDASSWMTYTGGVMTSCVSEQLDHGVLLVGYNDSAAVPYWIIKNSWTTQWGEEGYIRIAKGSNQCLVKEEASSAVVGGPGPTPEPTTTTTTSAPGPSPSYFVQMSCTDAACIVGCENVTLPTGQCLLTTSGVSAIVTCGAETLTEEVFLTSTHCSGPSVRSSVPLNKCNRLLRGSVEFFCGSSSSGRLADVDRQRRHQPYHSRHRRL

On to `C/C(=N\NC(N)=S)C12CC3C[C@H](C1)C[C@H](C3)C2`, for which the results for the Activity in data set [1] and in data set [2] were 38.73% and > 100%, respectively. As for `C/C(=N\NC(N)=[Se])c1ccc(F)c(F)c1`, in data set [1], the result was inactive.

In the case of `C/C(=N\Nc1nc(C)c[se]1)c1cccc(Cl)c1`, the selectivity ratio in data set [3] was > 19. By inhibition is commonly meant the share of the control response that was lost under treatment. Turning to `C/C(=N\Nc1nc(C)c[se]1)c1ccsc1`, the selectivity ratio in data set [3] was > 2.68. Besides, in data set [4], the inhibition entry is “inactive”. As a reminder, the half-life is how long it takes for the measured level to halve. Take `C/C(=N\Nc1nc(C)c[se]1)c1cccc([N+](=O)[O-])c1.Cl`: the selectivity ratio in [3] was > 32.5. For the same compound, the Activity in data set [5] is 78%; in data set [6], 77.3%; in data set [8] it was 78.3%. The half-life in data set [7] is 1 h.

In the case of `C/C(=N\NC(N)=S)c1ccc(C#N)cc1`, the Activity in [1] is 31.58%; in [2], > 100%. Further, in [4], the inhibition was determined as 98.8%. In the case of `COc1ccc(/C(C)=N/Nc2nc(C)c[se]2)c(OC)c1`, the inhibition result in [4] was “inactive”. On to `C/C(=N\Nc1nc(C)cs1)c1ccc([N+](=O)[O-])cc1`, for which, in data set [1], the outcome was inactive. In the case of `C/C(=N\NC(N)=S)c1cccc(Cl)c1`, the selectivity ratio in data set [3] was ~1.

As for `CN1CCN(C(=O)N[C@@H](Cc2ccccc2)C(=O)N[C@H](/C=C/S(=O)(=O)c2ccccc2)CCc2ccccc2)CC1` [K-777], the Activity in data set [9] is on record as > 100%. `C/C(=N\NC(N)=S)c1ccsc1`: the Activity in data set [1] is 10.89%; in data set [2] it was > 100%. In data set [4], this compound returned an inhibition of 62.8%. Turning to `O=C1O[C@H]([C@@H](O)CO)C(O)=C1O`, the Activity in [5] came to 80.3%; in [6] it was 65.3%; in data set [8] it was 80.3%. As to `C/C(Cc1cccc(Cl)c1)=N\NC(N)=S`, the selectivity ratio in data set [3] is > 3.42. In the case of `O=C(Cn1ccnc1[N+](=O)[O-])NCc1ccccc1` [BENZNIDAZOLE], the selectivity ratio in [3] is > 6.91. In data set [10], the Activity was > 100%. In the case of `COc1ccc(/C(C)=N/NC(N)=[Se])c(OC)c1`, in data set [1], the outcome was inactive. As to `C/C(=N\Nc1nc(C)c[se]1)C12CC3CC(CC(C3)C1)C2`, the inhibition result in [4] is “inactive”.

On to `C/C(=N\NC(N)=[Se])c1ccc(Br)cc1`, for which the selectivity ratio in data set [3] was > 13. For `C/C(=N\Nc1nc(C)cs1)c1ccc(C(F)(F)F)cc1`, in data set [1], the outcome was inactive. On to `COc1cccc(/C(C)=N/Nc2nc(C)c[se]2)c1`, for which the selectivity ratio in [3] was > 3.75.

In [4], `C/C(=N\NC(N)=S)[C@]12CC3C[C@@H](C[C@H](C3)C1)C2` registered an inhibition of 5.06%.

These data come from ChEMBL document CHEMBL6087400, “Synthesis and Biological Evaluation of New Chalcogen Semicarbazone (S, Se) and Their Azole Derivatives against Chagas Disease” (J Med Chem, 2024).
